Data published in ChEMBL document CHEMBL1909046, “DrugMatrix in vitro pharmacology data”.

Key:
Cytochrome P450 2A6 = target: T1, Cytochrome P450 2A6 (Homo sapiens, UniProt P11509); conditions: bti-tn-5b1-4; note: in other assays of this panel Not Active means under 50% inhibition at 10 µM
T1 sequence (P11509 whole entry): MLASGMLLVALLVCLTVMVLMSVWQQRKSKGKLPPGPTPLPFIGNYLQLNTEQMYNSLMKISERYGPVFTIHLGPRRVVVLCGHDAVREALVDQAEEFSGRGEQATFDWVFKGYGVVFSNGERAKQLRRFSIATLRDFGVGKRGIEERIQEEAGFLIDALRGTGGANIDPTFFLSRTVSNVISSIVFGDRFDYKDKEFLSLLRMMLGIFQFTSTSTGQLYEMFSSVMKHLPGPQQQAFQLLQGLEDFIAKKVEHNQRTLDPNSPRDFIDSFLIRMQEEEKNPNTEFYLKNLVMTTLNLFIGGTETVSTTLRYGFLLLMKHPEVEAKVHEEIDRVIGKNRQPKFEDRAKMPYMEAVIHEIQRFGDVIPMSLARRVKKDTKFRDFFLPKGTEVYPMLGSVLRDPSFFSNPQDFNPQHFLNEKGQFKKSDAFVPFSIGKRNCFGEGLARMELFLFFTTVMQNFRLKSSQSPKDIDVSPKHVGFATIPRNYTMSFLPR

[1] = DRUGMATRIX: Tumor Necrosis Factor (TNF), Non-Selective radioligand binding (ligand: [125I] TNF-alpha); format: cell membranes, Membrane; conditions: u-937; Not Active = under 50% inhibition at 10 µM
[2] = DRUGMATRIX: Calcium Channel Type L, Phenylalkylamine radioligand binding (ligand: [3H] (-)-Desmethoxyverapamil (D-888)); format: cell membranes, Rattus norvegicus, Wistar, Brain, Membrane; conditions: Not Active = under 50% inhibition at 10 µM
[3] = DRUGMATRIX: Platelet-Derived Growth Factor (PDGF) radioligand binding (ligand: [125I] PDGF); format: cell-based; conditions: nih3t3; Not Active = under 50% inhibition at 10 µM
[4] = DRUGMATRIX: Sigma2 radioligand binding (ligand: [3H] Ifenprodil); format: cell membranes, Rattus norvegicus, Wistar, Brain, Membrane; conditions: Not Active = under 50% inhibition at 10 µM
Leukotriene C4 synthase = target: T2, Leukotriene C4 synthase (Cavia porcellus, UniProt A6XA80); format: tissue-based, Lung;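 note: enzyme inhibition assay of leukotriene C4 synthase, using LTA4 as the substrate; in other assays of this panel Not Active means under 50% inhibition at 10 µM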
T2 sequence (A6XA80 whole entry): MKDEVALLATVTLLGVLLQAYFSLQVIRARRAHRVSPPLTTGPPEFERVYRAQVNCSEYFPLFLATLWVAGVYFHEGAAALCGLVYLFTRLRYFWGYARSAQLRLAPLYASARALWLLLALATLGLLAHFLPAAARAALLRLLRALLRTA

Adenosine receptor A2a = Adenosine receptor A2a (Homo sapiens, UniProt P29274); assay: DRUGMATRIX: Adenosine A2A radioligand binding (ligand: […]); format: cell membranes, Membrane; conditions: hek293; Not Active = under 50% inhibition at 10 µM
Chain of Adenosine receptor A2a (P29274 whole entry): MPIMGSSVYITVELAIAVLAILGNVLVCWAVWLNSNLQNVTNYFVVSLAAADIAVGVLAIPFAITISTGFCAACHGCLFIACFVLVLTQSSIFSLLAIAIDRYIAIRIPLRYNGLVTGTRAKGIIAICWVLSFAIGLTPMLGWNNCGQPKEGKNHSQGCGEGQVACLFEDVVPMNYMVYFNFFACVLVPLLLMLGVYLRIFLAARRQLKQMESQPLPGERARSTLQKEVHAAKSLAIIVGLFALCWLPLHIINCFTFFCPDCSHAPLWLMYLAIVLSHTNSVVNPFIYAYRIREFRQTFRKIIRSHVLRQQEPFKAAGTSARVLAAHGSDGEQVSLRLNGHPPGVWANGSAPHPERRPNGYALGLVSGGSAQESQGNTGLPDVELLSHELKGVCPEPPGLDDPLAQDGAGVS

CC(C)(C)NC(=O)[C@@H]1C[C@@H]2CCCC[C@@H]2CN1C[C@@H](O)[C@H](Cc1ccccc1)NC(=O)[C@H](CC(N)=O)NC(=O)c1ccc2ccccc2n1
6.83 µM: IC50 ([2]; read-out: IC50)
6.65 µM: Ki ([2]; read-out: Ki)
Not Active: IC50 (Cytochrome P450 2A6) | Ki (Cytochrome P450 2A6) | IC50 [1] | Ki [1] | IC50 [3] | Ki [3] | IC50 [4] | Ki [4] | IC50 (Leukotriene C4 synthase) | IC50 (Adenosine receptor A2a)

CC(=O)[C@@]1(O)CC[C@H]2[C@@H]3C[C@H](C)C4=CC(=O)CC[C@]4(C)[C@H]3CC[C@@]21C
Not Active: IC50 (Cytochrome P450 2A6) | Ki (Cytochrome P450 2A6) | IC50 [1] | Ki [1] | IC50 [2] | Ki [2] | IC50 [3] | Ki [3] | IC50 [4] | Ki [4] | IC50 (Leukotriene C4 synthase) | IC50 (Adenosine receptor A2a)

N[C@@H](Cc1ccc(N(CCCl)CCCl)cc1)C(=O)O
Not Active: IC50 (Cytochrome P450 2A6) | Ki (Cytochrome P450 2A6) | IC50 [1] | Ki [1] | IC50 [2] | Ki [2] | IC50 [3] | Ki [3] | IC50 [4] | Ki [4] | IC50 (Leukotriene C4 synthase) | IC50 (Adenosine receptor A2a)

CCCCc1oc2ccccc2c1C(=O)c1cc(I)c(OCCN(CC)CC)c(I)c1 [AMIODARONE]
Not Active: IC50 (Cytochrome P450 2A6) | Ki (Cytochrome P450 2A6) | IC50 (Leukotriene C4 synthase) | IC50 (Adenosine receptor A2a)

OCCN(CCO)c1nc(N2CCCCC2)c2nc(N(CCO)CCO)nc(N3CCCCC3)c2n1 [DIPYRIDAMOLE]
Not Active: IC50 (Cytochrome P450 2A6) | Ki (Cytochrome P450 2A6) | IC50 [1] | Ki [1] | IC50 [2] | Ki [2] | IC50 [3] | Ki [3] | IC50 [4] | Ki [4] | IC50 (Leukotriene C4 synthase) | IC50 (Adenosine receptor A2a)

Cc1oncc1C(=O)Nc1ccc(C(F)(F)F)cc1 [LEFLUNOMIDE]
Not Active: IC50 (Cytochrome P450 2A6) | Ki (Cytochrome P450 2A6) | IC50 [1] | Ki [1] | IC50 [2] | Ki [2] | IC50 [3] | Ki [3] | IC50 [4] | Ki [4] | IC50 (Leukotriene C4 synthase) | IC50 (Adenosine receptor A2a)

c1ccc([C@H]2CN3CCSC3=N2)cc1 [LEVAMISOLE]
2.7 µM: Ki ([4]; read-out: Ki)
Not Active: IC50 (Cytochrome P450 2A6) | Ki (Cytochrome P450 2A6) | IC50 [1] | Ki [1] | IC50 [2] | Ki [2] | IC50 [3] | Ki [3] | IC50 (Leukotriene C4 synthase) | IC50 (Adenosine receptor A2a)
4.39 µM: IC50 ([4]; read-out: IC50)

N[C@@H](Cc1ccc(O)c(O)c1)C(=O)O [LEVODOPA]
Not Active: IC50 (Cytochrome P450 2A6) | Ki (Cytochrome P450 2A6) | IC50 [1] | Ki [1] | IC50 [2] | Ki [2] | IC50 [3] | Ki [3] | IC50 [4] | Ki [4] | IC50 (Leukotriene C4 synthase) | IC50 (Adenosine receptor A2a)

N[C@@H](Cc1cc(I)c(Oc2ccc(O)c(I)c2)c(I)c1)C(=O)O [LIOTHYRONINE]
Not Active: IC50 (Cytochrome P450 2A6) | Ki (Cytochrome P450 2A6) | IC50 (Leukotriene C4 synthase) | IC50 (Adenosine receptor A2a)

O=NN(CCCl)C(=O)NC1CCCCC1 [LOMUSTINE]
Not Active: IC50 (Cytochrome P450 2A6) | Ki (Cytochrome P450 2A6) | IC50 [1] | Ki [1] | IC50 [2] | Ki [2] | IC50 [3] | Ki [3] | IC50 [4] | Ki [4] | IC50 (Leukotriene C4 synthase) | IC50 (Adenosine receptor A2a)

CCOC(=O)N1CCC(=C2c3ccc(Cl)cc3CCc3cccnc32)CC1 [LORATADINE]
Not Active: IC50 (Cytochrome P450 2A6) | Ki (Cytochrome P450 2A6) | IC50 [1] | Ki [1] | IC50 [2] | Ki [2] | IC50 [3] | Ki [3] | IC50 [4] | Ki [4] | IC50 (Leukotriene C4 synthase) | IC50 (Adenosine receptor A2a)

Cn1ccnc1S [METHIMAZOLE]
Not Active: IC50 (Cytochrome P450 2A6) | Ki (Cytochrome P450 2A6) | IC50 [1] | Ki [1] | IC50 [2] | Ki [2] | IC50 [3] | Ki [3] | IC50 [4] | Ki [4] | IC50 (Leukotriene C4 synthase) | IC50 (Adenosine receptor A2a)
